For one assay, the system named is MCF-7 cells. The experiment in a line: Breast cancer cell viability assay (CellTiter-Glo, 5 days). It counts as cell-based. Particulars: 5 days' compound exposure; for IC50: Homo sapiens, MCF7, 120 h. The gist of the method: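 Eleven-point semilog compound series, final 0.3-0.000003 μM, added to overnight-adhered MCF-7 cells (320/well; RPMI, 10% FBS, 20 mM HEPES) for 5 days. Viability read by CellTiter-Glo luminescence, background from medium without cells subtracted, expressed relative to untreated cells.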
For orientation: In ATP-based viability assays light output follows the ATP content of the culture.

A further assay addresses T1, ER-α in MCF-7 cells (Homo sapiens, UniProt P03372).
T1 sequence (P03372 1-595): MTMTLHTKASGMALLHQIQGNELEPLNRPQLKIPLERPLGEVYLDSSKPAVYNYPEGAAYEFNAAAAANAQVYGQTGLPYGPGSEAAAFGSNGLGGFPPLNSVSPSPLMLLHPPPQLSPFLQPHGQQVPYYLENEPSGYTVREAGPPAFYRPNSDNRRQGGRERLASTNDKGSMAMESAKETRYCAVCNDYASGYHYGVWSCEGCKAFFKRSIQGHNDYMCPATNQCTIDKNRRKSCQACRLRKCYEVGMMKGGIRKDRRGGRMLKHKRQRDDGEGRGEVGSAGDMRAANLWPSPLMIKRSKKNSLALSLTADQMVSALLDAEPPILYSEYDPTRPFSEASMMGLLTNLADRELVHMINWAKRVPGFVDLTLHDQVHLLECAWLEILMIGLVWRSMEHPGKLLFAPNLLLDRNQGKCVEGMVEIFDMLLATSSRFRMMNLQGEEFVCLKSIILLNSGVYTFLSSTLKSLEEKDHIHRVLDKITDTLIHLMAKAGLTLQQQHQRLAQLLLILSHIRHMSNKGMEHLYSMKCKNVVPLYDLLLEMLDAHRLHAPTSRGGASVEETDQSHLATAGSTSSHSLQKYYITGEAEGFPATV
Put plainly: Breast cancer cell ER-α in cell western assay (SP1). The format is cell-based. Details: endogenous in cells; host or cells: MCF-7. The conditions noted are these: 4 or 24 hr post compound addition; for Emax: MCF7, SP1 antibody, read-out: ER-α In Cell Western Assay (SP1) Max Response; for DC50: SP1 antibody, read-out: ER-α In Cell Western Assay (SP1) IC50. The gist of the method:
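ER-α protein levels were measured in MCF-7 cells after 4 or 24 hr compound exposure (final 0.3–0.000003 μM) in RPMI containing 10% charcoal-stripped FBS.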

Each structure is given as a SMILES string.

As a reminder, the IC50 is the point on the concentration scale where inhibition reaches its midpoint.

As for `CC/C(=C(/c1ccc(/C=C/C(=O)O)cc1)c1ccc2c(cnn2C(=O)C(C)C)c1)c1ccc(F)cc1Cl` [Compound 404, (E)-3-(4-((E)-2-(2-Chloro-4-fluorophenyl)-1-(1-isobutyryl-1H-indazol-5-yl)but-1-en-1-yl)phenyl)acrylic acid], in the assay on MCF-7 cells, the “MCF7 Viability Assay Max Response” value was “++ (++ = a single % value ≧ 40%)” and the IC50 was not above 100 nM. On ER-α in MCF-7 cells, the Emax is not below 40% and the DC50 is not above 100 nM.

Consider `CC/C(=C(/c1ccc(/C=C/C(=O)O)cc1)c1ccc2[nH]ncc2c1)c1ccc2sccc2c1` [Compound 272, (E)-3-(4-((E)-2-(Benzo[b]thiophen-5-yl)-1-(1H-indazol-5-yl)but-1-en-1-yl)phenyl)acrylic acid], for which, in the assay with MCF-7 cells, the “MCF7 Viability Assay Max Response” value is on record as “++ (++ = a single % value ≧ 40%)” and the 50% inhibitory concentration (IC50) was not above 100 nM. Moreover, at ER-α in MCF-7 cells, the Emax was not below 40% and the DC50 was not above 100 nM.

Turning to `CC/C(=C(/c1ccc(/C=C/C(=O)O)cc1)c1ccc2[nH]ncc2c1F)c1ccc(Oc2ncccn2)cc1` [Compound 160, (E)-3-(4-((E)-1-(4-Fluoro-1H-indazol-5-yl)-2-(4-(pyrimidin-2-yloxy)phenyl)but-1-en-1-yl)phenyl)acrylic acid], in the assay on MCF-7 cells, the “MCF7 Viability Assay Max Response” value is “++ (++ = a single % value ≧ 40%)” and the IC50 was not above 100 nM. On ER-α in MCF-7 cells, the Emax was not below 40% and the DC50 is not above 100 nM.

Turning to `CC/C(=C(/c1ccc(/C=C/C(=O)O)cc1)c1ccc2[nH]ncc2c1)c1ccc2nccnc2c1` [Compound 266, (E)-3-(4-((E)-1-(1H-Indazol-5-yl)-2-(quinoxalin-6-yl)but-1-en-1-yl)phenyl)acrylic acid], in the assay with MCF-7 cells, the “MCF7 Viability Assay Max Response” value is recorded as “++ (++ = a single % value ≧ 40%)” and the IC50 is not above 100 nM. In addition, at ER-α in MCF-7 cells, the Emax is not below 40% and the DC50 was not above 100 nM.

For the compound `CC/C(=C(/c1ccc(/C=C/c2noc(=O)[nH]2)cc1)c1ccc2scnc2c1)c1ccc(F)cc1Cl` [Compound 436, 3-((E)-4-((E)-1-(Benzo[d]thiazol-5-yl)-2-(2-chloro-4-fluorophenyl)but-1-en-1-yl)styryl)-1,2,4-oxadiazol-5(4H)-one], in the assay with MCF-7 cells, the “MCF7 Viability Assay Max Response” value is “++ (++ = a single % value ≧ 40%)” and the IC50 is not above 100 nM. Besides, on ER-α in MCF-7 cells, the Emax was not below 40% and the DC50 was not above 100 nM.

For `CC/C(=C(/c1ccc(/C=C/C(=O)O)cc1)c1ccc2c(c1)OCO2)c1ccccc1` [Compound 128, (E)-3-(4-((E)-1-(Benzo[d][1,3]dioxol-5-yl)-2-phenylbut-1-en-1-yl)phenyl)acrylic acid], in the assay with MCF-7 cells, the “MCF7 Viability Assay Max Response” value is “++ (++ = a single % value ≧ 40%)” and the IC50 is more than 100 nM. Further, on ER-α in MCF-7 cells, the Emax was not below 40% and the DC50 is more than 100 nM.

`CCOC(=O)/C=C/c1ccc(/C(=C(/CC)c2ccc(F)cc2Cl)c2ccc3c(cnn3C3CCCCO3)c2)cc1` (stereo not shown) [Compound 193, (E)-Ethyl 3-(4-((E)-2-(2-chloro-4-fluorophenyl)-1-(1-(tetrahydro-2H-pyran-2-yl)-1H-indazol-5-yl)but-1-en-1-yl)phenyl)acrylate]: in the assay with MCF-7 cells, the “MCF7 Viability Assay Max Response” value is reported as “+ (+ = a single % value < 40%)” and the IC50 was not above 100 nM. On ER-α in MCF-7 cells, the Emax is not below 40% and the DC50 was more than 100 nM.

For the compound `CC/C(=C(/c1ccc(/C=C/C(=O)O)cc1)c1cc2ccccc2o1)c1ccc(F)cc1Cl` [Compound 169, (E)-3-(4-((E)-1-(Benzofuran-2-yl)-2-(2-chloro-4-fluorophenyl)but-1-en-1-yl)phenyl)acrylic acid], in the assay with MCF-7 cells, the “MCF7 Viability Assay Max Response” value is “++ (++ = a single % value ≧ 40%)” and the IC50 was not above 100 nM. Moreover, at ER-α in MCF-7 cells, the Emax was not below 40% and the DC50 is not above 100 nM.

As to `CC/C(=C(/c1ccc(/C=C/C(=O)O)cc1)c1ccc2[nH]ncc2c1)c1cccc(OCCCCC(=O)O)c1` [Compound 352, 5-(3-((E)-1-(4-((E)-2-Carboxyvinyl)phenyl)-1-(1H-indazol-5-yl)but-1-en-2-yl)phenoxy)pentanoic acid], in the assay with MCF-7 cells, the “MCF7 Viability Assay Max Response” value is given as “+ (+ = a single % value < 40%)” and the IC50 was more than 100 nM. Further, at ER-α in MCF-7 cells, the Emax was not below 40% and the DC50 is more than 100 nM.

On to `CC/C(=C(/c1ccc(/C=C/C(=O)O)cc1)c1ccc2[nH]ncc2c1)c1ccc(Oc2ccccc2)cc1Cl` [Compound 291, (E)-3-(4-((E)-2-(2-Chloro-4-phenoxyphenyl)-1-(1H-indazol-5-yl)but-1-en-1-yl)phenyl)acrylic acid], for which, in the assay with MCF-7 cells, the “MCF7 Viability Assay Max Response” value is reported as “++ (++ = a single % value ≧ 40%)” and the half-inhibitory concentration (IC50) was not above 100 nM. Besides, at ER-α in MCF-7 cells, the Emax was not below 40% and the DC50 was not above 100 nM.

In the case of `CC/C(=C(/c1ccc(/C=C/C(=O)O)cc1)c1ccc2[nH]ncc2n1)c1ccccc1` [Compound 120, (E)-3-(4-((E)-2-Phenyl-1-(1H-pyrazolo[4,3-b]pyridin-5-yl)but-1-en-1-yl)phenyl)acrylic acid], in the assay with MCF-7 cells, the “MCF7 Viability Assay Max Response” value is reported as “++ (++ = a single % value ≧ 40%)” and the IC50 is not above 100 nM. Besides, on ER-α in MCF-7 cells, the Emax is not below 40% and the DC50 is not above 100 nM.

Consider `CC/C(=C(/c1ccc(/C=C/C(=O)O)cc1)c1ccc2[nH]ncc2c1)c1cccc(OCc2ccccc2)c1` [Compound 358, (E)-3-(4-((E)-2-(3-(Benzyloxy)phenyl)-1-(1H-indazol-5-yl)but-1-en-1-yl)phenyl)acrylic acid], for which, in the assay with MCF-7 cells, the “MCF7 Viability Assay Max Response” value was “++ (++ = a single % value ≧ 40%)” and the IC50 was not above 100 nM. For the same compound, on ER-α in MCF-7 cells, the Emax was not below 40% and the DC50 was not above 100 nM.

Regarding `CC/C(=C(/c1ccc(/C=C/C(=O)O)cc1)c1cc2cn[nH]c2cn1)c1ccccc1` [Compound 81, (E)-3-(4-((E)-2-Phenyl-1-(1H-pyrazolo[3,4-c]pyridin-5-yl)but-1-en-1-yl)phenyl)acrylic acid], in the assay with MCF-7 cells, the “MCF7 Viability Assay Max Response” value was “++ (++ = a single % value ≧ 40%)” and the IC50 is more than 100 nM. In addition, on ER-α in MCF-7 cells, the Emax is not below 40% and the DC50 is more than 100 nM.

Consider `CC/C(=C(/c1ccc(/C=C/c2nsc(=O)[nH]2)cc1)c1ccc2[nH]ncc2c1)c1ccccc1` [Compound 438, 3-((E)-4-((E)-1-(1H-Indazol-5-yl)-2-phenylbut-1-en-1-yl)styryl)-1,2,4-thiadiazol-5(4H)-one], for which, in the assay on MCF-7 cells, the “MCF7 Viability Assay Max Response” value is “++ (++ = a single % value ≧ 40%)” and the IC50 is not above 100 nM. At ER-α in MCF-7 cells, the Emax was not below 40% and the DC50 was not above 100 nM.

Regarding `CC/C(=C(/c1ccc(/C=C/C(=O)O)cc1)c1ccc2[nH]ncc2c1)c1cccc(Oc2ccncc2C(F)(F)F)c1` [Compound 372, (E)-3-(4-((E)-1-(1H-Indazol-5-yl)-2-(3-((3-(trifluoromethyl)pyridin-4-yl)oxy)phenyl)but-1-en-1-yl)phenyl)acrylic acid], in the assay with MCF-7 cells, the “MCF7 Viability Assay Max Response” value was “++ (++ = a single % value ≧ 40%)” and the IC50 was more than 100 nM. In addition, on ER-α in MCF-7 cells, the Emax was not below 40% and the DC50 is not above 100 nM.

On to `CC/C(=C(/c1ccc(OC[C@H](C)N2CC[C@@H](C)C2)cc1)c1ccc2[nH]ncc2c1)c1ccncc1Cl` [Compound 331, 5-((E)-2-(3-Chloropyridin-4-yl)-1-(4-((S)-2-((R)-3-methylpyrrolidin-1-yl)propoxy)phenyl)but-1-en-1-yl)-1H-indazole], for which, in the assay with MCF-7 cells, the “MCF7 Viability Assay Max Response” value is “++ (++ = a single % value ≧ 40%)” and the IC50 was not above 100 nM. Also, on ER-α in MCF-7 cells, the Emax is not below 40% and the DC50 is not above 100 nM.

The values are drawn from patent publication US9399646B2 (Genentech, Inc., priority 2010, dated 2016).
